# Experimental data as given in patent US11452716B2, “Pharmaceutical composition and use thereof” (Ascentage Pharma (Suzhou) Co., Ltd., priority 2018, dated 2022).
# Values joined by “and” are separate entries in the source; they are usually repeats but may differ in a detail not shown here. Identical values can stand only once.
# Legend:
# [1] = test system: liposarcoma patient-derived xenograft (LP-19-0029 PDX); test: Antitumor activity in subcutaneous liposarcoma patient-derived xenograft (LP-19-0029 PDX) model; format: in vivo, Balb/c nude mice; settings: for T/C (%) @D 21 / RTV @D 21: Embodiment 2, day 21, Compound C 80 mg/kg p.o. Q2D x 16D, Palbociclib 50 mg/kg p.o. QD x 3W; for RTV @D 21: mean ± SEM, n=5; for RTV @D 22 / T/C(%) @D 22: day 22, Compound C 40 mg/kg p.o. q.2d x 3w, Palbociclib 50 mg/kg p.o. q.d x 3w, Ribociclib 75 mg/kg p.o. q.d x 3w
# Text: Animals: Balb/c nude, female, 6-8 weeks, weighing approximately 18-22 g. A total of 40 (20 plus 100%) will be needed for the study, which will be purchased from Shanghai SLAC Laboratory Animal Co., LTD. Generation of the subcutaneous liposarcoma patient-derived xenograft (LP-19-0029 PDX) Model: The LP-19-0029 PDX model was originally established from a surgically resected clinical sample (cancer type: liposarcoma; pathology diagnosis: dedifferentiated liposarcoma), and implanted in nude mice defined as passage 0 (P0). The next passage implanted from P0 tumor was defined as passage 1 (P1), and so on during continual implantation in mice. The frozen tumor fragments will be revived in NOD SCID mice, when the tumors develop to suitable size, they will be passaged to Balb/c nude mice. The P4-P7 tumors will be used for the study. Each mouse was implanted subcutaneously at the right flank with the LP-19-0029 P4 tumor slices (about 30 mm^3) for tumor development. Treatments were started when the average tumor size reached approximately 150 mm^3. The animals were assigned into groups using an Excel-based randomization software performing stratified randomization based upon their tumor volumes. Each group consisted of 5 tumor-bearing mice. [table] Tumor volumes were measured twice weekly in two dimensions using a caliper, and the volume was expressed in mm^3 using the formula: Tumor Volume(mm^3)=0.5a×b^2 where a and b are the long and short diameters of the tumor, respectively. Relative tumor volume (RTV) was calculated using the following formula: RTV=Vt/Vl where Vl and Vt are the average tumor volumes on the first day of treatment (day 1) and the average tumor volumes on a certain time point (day t). Synergy score was calculated using the following formula described in Clarke R. Issues in experimental design and endpoint analysis in the study of experimental cytotoxic agents in vivo in breast cancer and other models[J]. Breast Cancer Research & Treatment, 1997, 46(2-3):255-278, which is incorporated by reference in its entirety: Synergy score=(([…]); where A is RTV value of drug A; B is RTV value of drug B; C is RTV value of vehicle control. AB is RTV value of combination treatment with A and B. Synergy scores: >1 represents synergistic, =1 represents additive, <1 represents antagonistic (referring to Gould S E et al. Translational value of mouse models in oncology drug development. Nature medicine. 2015 21, 431-439). Standard NCI procedures were used to calculate tumor parameters. Percent tumor growth inhibition (% T/C) was calculated as the mean RTV of treated tumors (T) divided by the mean RTV of control tumors (C)×100%. The percentage T/C value is an indication of antitumor effectiveness: a value of T/C<42% is considered significant antitumor activity by the NCI. A T/C value<10% is considered to indicate highly significant antitumor activity, and is the level used by the NCI to justify a clinical trial if toxicity and certain other requirements are met (termed DN-2 level activity). A body weight loss nadir (mean of group) of greater than 20%, or greater than 20% of drug deaths are considered to indicate an excessively toxic dosage. Summary statistics, including mean and the standard error of the mean (SEM), are provided for the tumor volume of each group at each time point. Statistical analysis of difference in the tumor volume among the groups were conducted on the data obtained at the best therapeutic time point after the final dose. A one-way ANOVA was performed to compare the tumor volume and the tumor weight among groups, and when a significant F-statistics (a ratio of treatment variance to the error variance) was obtained, comparisons between groups were carried out with Games-Howell test. All data were analyzed using SPSS 17.0. p<0.05 is considered to be statistically significant. […]
# [2] = test system: lung cancer patient-derived xenograft (LU-01-0448 PDX); test: Antitumor activity in subcutaneous lung cancer patient-derived xenograft (LU-01-0448 PDX) model; format: in vivo, mice; settings: Embodiment 4; for mRECIST / Response @ D 33: animals per category, PD progressive disease, SD stable disease, PR partial response; for T/C(%) @ D 33 / RTV @ D 33 / Response @ D 33: day 33; for T/C(%) @ D 33 / RTV @ D 33: Compound C 100 mg/kg p.o. QD x 5 D, Palbociclib 50 mg/kg p.o. QD x 21 D; for RTV @ D 33: n=2
# Method: Tumor volumes were measured twice weekly in two dimensions using a caliper, and the volume was expressed in mm^3 using the formula: Tumor Volume(mm^3)=0.5a×b^2 Relative tumor volume (RTV) was calculated using the following formula: RTV=Vt/Vl Synergy score=(([…]); where A is RTV value of drug A; B is RTV value of drug B; C is RTV value of vehicle control. AB is RTV value of combination treatment with A and B. Synergy scores: >1 represents synergistic, =1 represents additive, <1 represents antagonistic (referring to Gould S E et al. Translational value of mouse models in oncology drug development. Nature medicine. 2015 21, 431-439). Standard NCI procedures were used to calculate tumor parameters. Percent tumor growth inhibition (% T/C) was calculated as the mean RTV of treated tumors (T) divided by the mean RTV of control tumors (C)×100%. The percentage T/C value is an indication of antitumor effectiveness: a value of T/C<42% is considered significant antitumor activity by the NCI. A T/C value<10% is considered to indicate highly significant antitumor activity, and is the level used by the NCI to justify a clinical trial if toxicity and certain other requirements are met (termed DN-2 level activity). A body weight loss nadir (mean of group) of greater than 20%, or greater than 20% of drug deaths are considered to indicate an excessively toxic dosage. Compound C was further tested in combination with palbociclib in another patient-derived xenograft model (LU-01-0448 PDX model). LU-01-0448 PDX model was a subcutaneous lung cancer patient-derived xenograft model, which was established according to the procedures of LP-19-0029 PDX model in embodiment 2. This experiment was carried out according to Table 4 and the procedures described in embodiment 2. [table]
SMILES,T/C (%) @D 21 [1] [%],RTV @D 21 [1],RTV @D 22 ([1]; Embodiment 3),T/C(%) @D 22 ([1]; Embodiment 3),"T/C(%) @D 22 ([1]; Embodiment 3, listed as palbociclib) [%]",mRECIST [2],T/C(%) @ D 33 [2] [%],RTV @ D 33 [2],Response @ D 33 [2],T/C (%) @D 21 ([1]; listed as compound C) [%],"RTV @35 ([1]; Embodiment 3, @35, Compound C 40 mg/kg, Palbociclib 50 mg/kg, Ribociclib 75 mg/kg)","T/C(%) @D 22 ([1]; Embodiment 3, listed as ribociclib) [%]"
"CC(=O)c1c(C)c2cnc(Nc3ccc(N4CCNCC4)cn3)nc2n(C2CCCC2)c1=O [Palbociclib, palbociclib]",70,15.19 ± 1.31,11.36 ± 0.96,83.50%,83.5,2/2 PD,35.71,4.18 ± 0.80,2/2 PD,,,
"CCN1[C@@H](C(=O)NC23CCC(C(=O)O)(CC2)CC3)[C@H](c2cccc(Cl)c2F)[C@]2(C(=O)Nc3cc(Cl)ccc32)C12CCCCC2 [Compound C, 4-((3′R,4′S,5′R)-6″-Chloro-4′-(3-chloro-2-fluorophenyl)-1′-ethyl-2″-oxodispiro[cyclohexane-1,2′-pyrrolidine-3′,3″-indoline]-5′-carboxamido)bicyclo[2.2.2]octane-1-carboxylic acid]",22.28,4.83 ± 1.56,5.24 ± 0.61,38.4% and 38.44%,,2/2 SD,41.43,4.85 ± 1.85,2/2 PD,22,10.95 ± 1.66,
"CN(C)C(=O)c1cc2cnc(Nc3ccc(N4CCNCC4)cn3)nc2n1C1CCCC1 [Ribociclib, ribociclib]",,,9.77 ± 1.22,71.70%,,,,,,,,71.7
